The text below walks through data of patent publication US5324725A, “7-fused 2-(piperazinoalkyl) indole derivatives, intermediates and compositions thereof” (Kali-Chemie Pharma GmbH, priority 1991, dated 1994).

For series [1], the system named is Histamine-induced anaphylactoid reactions. In words: Inhibition of anaphylactoid cutaneous reaction induced by histamine. It counts as in vivo, rat (Sprague-Dawley). To be noted: Rattus norvegicus, 1 h; rats, 2 × 10^-5 mol/kg p.o., one hour before challenge; histamine intradermal. Put shortly:
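Animals received 50 μl intradermal histamine (0.8 mg/ml in saline) in the flank opposite the antiserum site, just before i.v. ovalbumin plus blue dye. Test substance at 2×10^-5 mol/kg was given orally 1 h before challenge in water with 1% DMF and 1% Tween 20. Blue-dye exudation was scored visually at 30 min, giving % inhibition versus solvent controls.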

Series [2] has as its system Passive cutaneous anaphylaxis (P.C.A.). The experiment in a line: Inhibition of passive cutaneous anaphylaxis (P.C.A.). It is filed as in vivo, rat (Sprague-Dawley). To be noted: Rattus norvegicus, 1 h; rats, 2 × 10^-5 mol/kg p.o., one hour before ovalbumin challenge. The method, boiled down: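 Sprague-Dawley rats (150-180 g) were sensitized intradermally with rat IgE-rich anti-ovalbumin serum and challenged 24 h later with i.v. ovalbumin 8.25 mg/kg plus Evans blue. Compound was given orally at 2×10^-5 mol/kg 1 h before challenge. Dye exudation was scored visually at 30 min as % inhibition versus vehicle controls.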

A short description of series [3]: Determination of the minimum toxic dose. To be noted: mouse, in vivo, po, 300 mg/kg, 1440 min. Further details: species or system male mice. The protocol: 2. Determination of the minimum toxic dose.
Maximum doses of 300 mg/kg of the test substance were administered orally to male mice weighing 20-25 g. The animals were observed carefully for 3 hours for toxicity symptoms. In addition, all symptoms and deaths over a period of 24 hours after administration were recorded. Associated symptoms were also observed and recorded. If death or severe toxic symptoms were observed, further mice were administered increasingly lower doses. The lowest dose which caused death or severe toxic symptoms is given as the minimum toxic dose in the following Table B.

As usually defined, the inhibition in vivo is the percentage by which the read-out fell short of the control.

As to `Cc1ccnc(N2CCN(CCc3c(C)n4c5c(cccc35)CCC4)CC2)c1` [Example 1, 5,6-Dihydro-2-methyl-1-{2-[4-(4-methylpyridin-2-yl)piperazin-1-yl]ethyl}-4H-pyrrolo[3,2,1-ij]quinoline], the values for the inhibition in vivo at 20 µmol/kg in series [1] and in series [2] were 85% and 98%, respectively. The “Minimum toxic dose (lowest dose which caused death or severe toxic symptoms)” value (“Minimum toxic dose” below) in series [3] is on record as 100 mg/kg.

With `Cc1ccnc(N2CCN(CCc3c(C)n4c5c(cccc35)CCC4c3ccccc3)CC2)c1` (stereo not drawn) [Example 3, 5,6-dihydro-2-methyl-4-phenyl-1-{2-[4-(4-methylpyridine-2-yl)piperazin-1-yl]-ethyl}-4H-pyrrolo[3,2,1-ij]quinoline], the inhibition in vivo at 20 µmol/kg came to 93% in series [1] and 100% in series [2]. For the same compound, the “Minimum toxic dose” value in series [3] was determined as 300 mg/kg.

`Cc1ccnc(N2CCN(CCc3c(C)n4c5c(cccc35)SCC4)CC2)c1` [Example 11, 5-Methyl-6-{2-[4-(4-methylpyridin-2-yl)piperazin-1-yl]ethyl}-2,3-dihydro-pyrrolo[1,2,3-de]-1,4-benzo-thiazine]: the figures for the inhibition in vivo at 20 µmol/kg in series [1] and in series [2] were 93% and 100%, respectively. Further, the “Minimum toxic dose” value in series [3] is recorded as 100 mg/kg.

Consider `Cc1ccnc(N2CCN(CCc3cn4c5c(cccc35)CCC4)CC2)c1` [Example 13, 5,6-Dihydro-1-{2-[4-(4-methylpyridin-2-yl)piperazin-1-yl]ethyl}-4H-pyrrolo[3,2,1-ij]quinoline], for which the inhibition in vivo at 20 µmol/kg came to 68% in series [1] and 83% in series [2]. Also, the “Minimum toxic dose” value in series [3] is reported as 100 mg/kg.

Consider `CCc1c(C(O)CN2CCN(c3cc(C)ccn3)CC2)c2cccc3c2n1CCC3` (stereo not drawn) [Example 14, 2-Ethyl-5,6-dihydro-1-{2-[4-(4-methylpyridin-2-yl)piperazin-1-yl]-1-hydroxyethyl}-4H-pyrrolo[3,2,1-ij]quinoline], for which the inhibition in vivo at 20 µmol/kg in series [1] was 25%; in series [2] it was 65%. The “Minimum toxic dose” value in series [3] turned out to be 300 mg/kg.

`Cc1ccnc(N2CCN(CCc3c(C)n4c5c(ccc(Cl)c35)OCC4)CC2)c1` [Example 35]: the inhibition in vivo at 20 µmol/kg in series [1] is 58%; in series [2], 75%. Besides, in series [3], the “Minimum toxic dose” value stood at 300 mg/kg.

Regarding `Cc1ccc(N2CCN(CCc3c(C)n4c5c(cccc35)CCC4)CC2)nc1` [Example 42], the results for the inhibition in vivo at 20 µmol/kg in series [1] and in series [2] were 45% and 50%, respectively. The “Minimum toxic dose” value in series [3] turned out to be 100 mg/kg.

`Cc1ccnc(N2CCN(CCc3c(C)n4c5c(cc(C)cc35)CCC4)CC2)c1` [Example 54]: the inhibition in vivo at 20 µmol/kg in series [1] was determined as 73%; in series [2] it was 93%. For the same compound, the “Minimum toxic dose” value in series [3] was 300 mg/kg.

On to `Cc1cc2c3c(c1)c(CCN1CCC(C(=O)c4ccc(F)cc4)CC1)c(C)n3CCC2` [Example 55], for which the inhibition in vivo at 20 µmol/kg in series [1] came to 50%; in series [2] it was 80%. The “Minimum toxic dose” value in series [3] was found to be 300 mg/kg.

With `Cc1ccnc(N2CCN(CCc3c(C)n4c5c(cccc35)C(C)CC4)CC2)c1` (stereo not drawn) [Example 57], the inhibition in vivo at 20 µmol/kg was determined as 95% in series [1] and 100% in series [2]. Also, the “Minimum toxic dose” value in series [3] is reported as 300 mg/kg.
